Here are results for 1 compound from ChEMBL document CHEMBL2321872, “Synthesis and antimycobacterial activity of 2,1'-dihydropyridomycins” (ACS Med Chem Lett, 2013).

In this test the target is Enoyl-[acyl-carrier-protein] reductase [NADH] (Mycobacterium tuberculosis, UniProt P9WGR1, S94A).

In the case of `CC(C)[C@H]1OC(=O)[C@H](C)[C@H](O)[C@H](Cc2cccnc2)NC(=O)[C@@H](NC(=O)c2ncccc2O)[C@@H](C)OC1=O`, the affinity corresponds to a Ki of 71 µM.
